Read-outs that look alike come from different tables or passages of the source.
Assays:
non-expressing oocytes [1] = experiment: cells; format: cell-based, Xenopus laevis; conditions: Xenopus laevis, total [3H]CQ transport; for inhibition at 500 µM: [test solute] = 0.5 mM; for inhibition at 1000 µM: [test solute] = 1 mM; for inhibition at 2000 µM: [test solute] = 2 mM
In short: (§1)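 ND96, pH 5.5, 1.5 h, 27.5 °C; uptake direction acidic outside → oocyte cytosol, mimicking efflux from digestive vacuole. Ice-cold wash stop, 10% SDS lysis, scintillation counting. Ten oocytes/treatment, ≥4 independent experiments.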

PfCRT^Ecu1110 [2] = target: T1, PfCRT^Ecu1110 (Plasmodium falciparum, UniProt Q9N623, A220S/I356L/K76T/N326D); experiment: [3H]CQ uptake into Xenopus oocytes, cis-inhibition by unlabelled solute; format: cell-based
T1 sequence (Q9N623 whole entry A220S/I356L/K76T/N326D): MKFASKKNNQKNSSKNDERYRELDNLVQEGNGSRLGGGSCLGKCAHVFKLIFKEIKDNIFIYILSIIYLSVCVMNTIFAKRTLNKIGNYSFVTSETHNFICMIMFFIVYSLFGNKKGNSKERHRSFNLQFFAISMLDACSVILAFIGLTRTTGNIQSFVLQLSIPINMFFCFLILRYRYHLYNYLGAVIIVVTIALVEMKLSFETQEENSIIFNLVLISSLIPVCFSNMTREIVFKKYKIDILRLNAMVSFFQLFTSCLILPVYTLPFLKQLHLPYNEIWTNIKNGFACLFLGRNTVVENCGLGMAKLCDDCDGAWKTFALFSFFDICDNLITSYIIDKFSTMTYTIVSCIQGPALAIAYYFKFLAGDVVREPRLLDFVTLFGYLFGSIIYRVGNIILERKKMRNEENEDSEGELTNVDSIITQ
In short: as §1

PfCRT^Dd2 [3] = target: T2, PfCRT^Dd2 (Plasmodium falciparum, UniProt Q9N623, A220S/I356T/K76T/M74I/N326S/N75E/Q271E/R371I); experiment: as above; format: cell-based
T2 sequence (Q9N623 whole entry A220S/I356T/K76T/M74I/N326S/N75E/Q271E/R371I): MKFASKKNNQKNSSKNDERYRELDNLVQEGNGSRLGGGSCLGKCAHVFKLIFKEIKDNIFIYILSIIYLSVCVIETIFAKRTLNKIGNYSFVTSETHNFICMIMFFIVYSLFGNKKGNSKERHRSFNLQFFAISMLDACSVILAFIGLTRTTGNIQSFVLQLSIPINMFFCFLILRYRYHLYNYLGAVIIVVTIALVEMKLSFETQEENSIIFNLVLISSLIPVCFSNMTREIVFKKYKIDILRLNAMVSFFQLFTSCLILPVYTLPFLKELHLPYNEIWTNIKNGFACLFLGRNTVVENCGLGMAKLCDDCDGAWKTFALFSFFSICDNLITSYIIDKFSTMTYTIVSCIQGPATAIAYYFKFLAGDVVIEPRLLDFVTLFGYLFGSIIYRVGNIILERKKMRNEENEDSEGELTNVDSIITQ
In short: as §1

PfCRT [4] = experiment: Influx of VF-6 via PfCRT into the oocyte, solutes tested as potential co-substrates; format: cell-based, Plasmodium falciparum; set-up: key: X: Compounds that have been tested as potential co-substrates but are not required for influx of VF-6 via PfCRT into the oocyte; conditions: X marks the solute
PfCRT^Ecu1110 [5] = target: T1, PfCRT^Ecu1110; experiment: cell-based; format: cell-based; conditions: […]
In short: (§2)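 Oocytes (ten per treatment, ≥4 independent frogs/days) were preloaded by injecting VF-6 in 25 nL ND96 at pH 5.0, 5.5, 6.0 or 7.0, or Na^+-free choline buffer, then uptake run 1.5 h, 27.5 °C, ND96 pH 5.5 by default. Internal concentrations assumed ~400 nL oocyte volume.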

PfNT1 = target: T3, PfNT1 (Plasmodium falciparum, UniProt Q8IDM6); experiment: cell-based; format: cell-based; conditions: for activity at 5000 µM: total [3H]CQ transport
T3 construct: expressed in transfected cells; host or cells: Xenopus laevis oocytes (stage V-VI), cRNA-injected
T3 sequence (Q8IDM6 whole entry): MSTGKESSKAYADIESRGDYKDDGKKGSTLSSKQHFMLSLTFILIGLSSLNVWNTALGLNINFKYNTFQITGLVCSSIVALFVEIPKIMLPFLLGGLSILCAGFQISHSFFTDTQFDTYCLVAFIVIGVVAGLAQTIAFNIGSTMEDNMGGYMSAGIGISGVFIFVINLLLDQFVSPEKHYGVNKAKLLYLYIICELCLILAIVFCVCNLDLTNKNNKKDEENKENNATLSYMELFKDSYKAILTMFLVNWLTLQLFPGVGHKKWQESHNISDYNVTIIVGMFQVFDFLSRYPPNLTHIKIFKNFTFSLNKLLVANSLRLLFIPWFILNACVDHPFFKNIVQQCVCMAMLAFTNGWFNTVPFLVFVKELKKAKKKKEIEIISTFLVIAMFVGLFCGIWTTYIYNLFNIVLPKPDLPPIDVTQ
In short: as §2

PfCRT^3D7 [6] = target: T4, PfCRT^3D7 (Plasmodium falciparum, UniProt Q8IBZ9); experiment: cell-based; format: cell-based
T4 sequence (Q8IBZ9 59-398): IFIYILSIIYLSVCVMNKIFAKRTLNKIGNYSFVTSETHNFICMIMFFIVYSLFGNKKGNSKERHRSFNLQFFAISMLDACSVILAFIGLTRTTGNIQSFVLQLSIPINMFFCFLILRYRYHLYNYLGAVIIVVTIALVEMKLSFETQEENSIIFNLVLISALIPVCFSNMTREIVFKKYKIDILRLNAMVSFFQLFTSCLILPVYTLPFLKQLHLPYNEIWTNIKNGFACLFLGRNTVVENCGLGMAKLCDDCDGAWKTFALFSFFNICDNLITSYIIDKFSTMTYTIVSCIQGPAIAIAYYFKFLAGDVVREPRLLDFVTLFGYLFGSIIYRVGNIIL
In short: as §2

PfCRT^Dd2 [7] = target: T2, PfCRT^Dd2; experiment: cell-based; format: cell-based; conditions: […]; for activity at 45000 µM: [test solute]i = 45 mM (30 mM for some solutes due to solubility)
In short: as §2

PfCRT [8] = experiment: Potential co-substrates tested for influx of VF-6 via PfCRT into the oocyte; format: cell-based, Plasmodium falciparum; set-up: key: X: Compounds that have been tested as potential co-substrates but are not required for influx of VF-6 via PfCRT into the oocyte
non-expressing oocytes [9] = format: cell-based, Xenopus laevis; conditions: total [3H]CQ transport; for Uptake of [3H]CQ (% non-expressing oocyte control), trans-stimulation: non-expressing oocytes, normalised to the oocyte type control; for Uptake of [3H]CQ (% PfCRTDd2 control), trans-stimulation, non-expressing oocytes: mean ± SEM, SEM
In short: as §2

PfCRT^3D7 [10] = target: T4, PfCRT^3D7; experiment: cell-based; format: cell-based; conditions: total [3H]CQ transport; for inhibition at 500 µM: [test solute] = 0.5 mM; for inhibition at 1000 µM: [test solute] = 1 mM; for inhibition at 2000 µM: [test solute] = 2 mM
In short: as §1

[11] = Oocyte, mean ± SEM, SEM, read-out: Uptake of [3H]CQ (% PfCRTDd2 control), cis-inhibition, non-expressing oocytes
[12] = non-expressing oocytes, normalised to the oocyte type control, read-out: Uptake of [3H]CQ (% non-expressing oocyte control), cis-inhibition
[13] = read-out: PfCRT-mediated [3H]CQ transport, cis-inhibition (% PfCRTEcu1110 control)
[14] = read-out: Uptake of [3H]CQ (% PfCRTDd2 control), cis-inhibition, PfCRTEcu1110, SEM
[15] = read-out: Uptake of [3H]CQ (% PfCRTEcu1110 control), cis-inhibition
[16] = read-out: [3H]CQ transport (% PfCRTEcu1110 control), cis-inhibition, PfCRTEcu1110, SEM
[17] = read-out: PfCRT-mediated [3H]CQ transport, cis-inhibition (% PfCRTDd2 control)
[18] = read-out: Uptake of [3H]CQ (% PfCRTDd2 control), cis-inhibition
[19] = read-out: Uptake of [3H]CQ (% PfCRTDd2 control), cis-inhibition, PfCRTDd2, SEM
[20] = read-out: [3H]CQ transport (% PfCRTDd2 control), cis-inhibition, PfCRTDd2, SEM
[21] = PfCRT3D7 oocytes, normalised to the oocyte type control, read-out: Uptake of [3H]CQ (% PfCRT3D7 control), cis-inhibition
[22] = mean ± SEM, SEM, read-out: Uptake of [3H]CQ (% PfCRTDd2 control), cis-inhibition, PfCRT3D7

NC(=O)CC[C@H](N)C(=O)O [L-glutamine]
inhibition at 500 µM (non-expressing oocytes [1]; [11]): 3.2 ± 0.07% | inhibition at 1000 µM (non-expressing oocytes [1]; [11]): 2.7 ± 0.05% | inhibition at 2000 µM (non-expressing oocytes [1]; [11]): 2.2 ± 0.03% | inhibition at 500 µM (non-expressing oocytes [1]; [12]): 99 ± 3.2% | inhibition at 1000 µM (non-expressing oocytes [1]; [12]): 100 ± 6.3% | inhibition at 2000 µM (non-expressing oocytes [1]; [12]): 98 ± 3.5% | inhibition at 1000 µM (PfCRT^Ecu1110 [2]; [13]): 95 ± 3.5% | inhibition at 2000 µM (PfCRT^Ecu1110 [2]; [13]): 96 ± 6.2% | inhibition at 500 µM (PfCRT^Ecu1110 [2]; [14]): 32 ± 0.4% | inhibition at 1000 µM (PfCRT^Ecu1110 [2]; [14]): 32 ± 1.4% | inhibition at 2000 µM (PfCRT^Ecu1110 [2]; [14]): 32 ± 1.1% | inhibition at 500 µM (PfCRT^Ecu1110 [2]; [15]): 98 ± 6.9% | inhibition at 1000 µM (PfCRT^Ecu1110 [2]; [15]): 97 ± 6.4% | inhibition at 2000 µM (PfCRT^Ecu1110 [2]; [15]): 99 ± 6.3% | inhibition at 500 µM (PfCRT^Ecu1110 [2]; [16]): 29 ± 1.2% | inhibition at 1000 µM (PfCRT^Ecu1110 [2]; [16]): 29 ± 0.2% | inhibition at 2000 µM (PfCRT^Ecu1110 [2]; [16]): 29 ± 0.1% | inhibition at 500 µM (PfCRT^Dd2 [3]; [17]): 98 ± 2.8% | inhibition at 1000 µM (PfCRT^Dd2 [3]; [17]): 98 ± 3.6% | inhibition at 2000 µM (PfCRT^Dd2 [3]; [17]): 95 ± 5.5% | inhibition at 500 µM (PfCRT^Dd2 [3]; [18]): 100 ± 4.9% | inhibition at 1000 µM (PfCRT^Dd2 [3]; [18]): 100 ± 5.2% | inhibition at 500 µM (PfCRT^Dd2 [3]; [19]): 100 ± 4.9% | inhibition at 1000 µM (PfCRT^Dd2 [3]; [19]): 100 ± 5.2% | inhibition at 2000 µM (PfCRT^Dd2 [3]; [19]): 97 ± 8.3% | inhibition at 500 µM (PfCRT^Dd2 [3]; [20]): 98 ± 2.8% | inhibition at 1000 µM (PfCRT^Dd2 [3]; [20]): 98 ± 3.6% | Compounds that have been tested as potential co-substrates but are not required for influx of VF-6 via PfCRT into the oocyte (PfCRT [4]): X | activity at 5000 µM (PfCRT^Ecu1110 [5]; pH 5.5, read-out: PfCRT-mediated [3H]CQ transport, trans-stimulation (% PfCRTEcu1110 control), [test solute]i = 5 mM (intracellular), PfCRTEcu1110 oocytes, normalised to oocyte type control): 97 ± 3.3% | activity at 5000 µM (PfCRT^Ecu1110 [5]; pH 5.5, read-out: Uptake of [3H]CQ (% PfCRTEcu1110 control), trans-stimulation, PfCRTEcu1110 oocytes, [test solute]i = 5 mM, total [3H]CQ transport, normalised to the oocyte type control): 99 ± 2.7% | activity at 45000 µM (PfCRT^Ecu1110 [5]; pH 5.5, read-out: Uptake of [3H]CQ (% PfCRTEcu1110 control), trans-stimulation, PfCRTEcu1110 oocytes, [test solute]i = 45 mM (30 mM for some solutes due to solubility), total [3H]CQ transport, normalised to the oocyte type control): 99 ± 3.5% | activity at 5000 µM (PfCRT^Ecu1110 [5]; read-out: Uptake of [3H]CQ (% PfCRTDd2 control), trans-stimulation, PfCRTEcu1110, total [3H]CQ transport, [test solute]i = 5 mM (intracellular), mean ± SEM, SEM): 35 ± 1.3% | activity at 45000 µM (PfCRT^Ecu1110 [5]; read-out: Uptake of [3H]CQ (% PfCRTDd2 control), trans-stimulation, PfCRTEcu1110, total [3H]CQ transport, [test solute]i = 45 mM (intracellular; 30 mM for some solutes due to solubility), mean ± SEM, SEM): 35 ± 2.6% | activity at 5000 µM (PfNT1; PfNT1 oocytes, [test solute]i = 5 mM, normalised to the oocyte type control, read-out: Uptake of [3H]CQ (% PfNT1 control), trans-stimulation): 99 ± 4.2% | activity at 45000 µM (PfNT1; SEM, read-out: Uptake of [3H]CQ (% PfCRTDd2 control), trans-stimulation, PfNT1): 2.8 ± 0.02% | activity at 45000 µM (PfNT1; read-out: Uptake of [3H]CQ (% PfNT1 control), trans-stimulation): 98 ± 3.1% | activity at 5000 µM (PfNT1; [test solute]i = 5 mM (intracellular), mean ± SEM, SEM, read-out: Uptake of [3H]CQ (% PfCRTDd2 control), trans-stimulation, PfNT1): 3.2 ± 0.02% | activity at 5000 µM (PfCRT^3D7 [6]; PfCRT3D7 oocytes, [test solute]i = 5 mM, total [3H]CQ transport, normalised to the oocyte type control, read-out: Uptake of [3H]CQ (% PfCRT3D7 control), trans-stimulation): 99 ± 3.2% | [3H]CQ transport (% PfCRT3D7 control), trans-stimulation, PfCRT3D7 (PfCRT^3D7 [6]; SEM): 0.3 ± 0.01 % PfCRT3D7 control | activity at 5000 µM (PfCRT^3D7 [6]; [test solute]i = 5 mM (intracellular), PfCRT3D7 oocytes, normalised to oocyte type control, read-out: PfCRT-mediated [3H]CQ transport, trans-stimulation (% PfCRT3D7 control)): 97 ± 4.6% | activity at 45000 µM (PfCRT^3D7 [6]; SEM, read-out: Uptake of [3H]CQ (% PfCRTDd2 control), trans-stimulation, PfCRT3D7): 3.3 ± 0.04% | activity at 45000 µM (PfCRT^3D7 [6]; read-out: PfCRT-mediated [3H]CQ transport, trans-stimulation (% PfCRT3D7 control)): 98 ± 1% | activity at 45000 µM (PfCRT^3D7 [6]; read-out: Uptake of [3H]CQ (% PfCRT3D7 control), trans-stimulation): 100 ± 2.7% | activity at 5000 µM (PfCRT^3D7 [6]; total [3H]CQ transport, [test solute]i = 5 mM (intracellular), mean ± SEM, SEM, read-out: Uptake of [3H]CQ (% PfCRTDd2 control), trans-stimulation, PfCRT3D7): 3.3 ± 0.01% | activity at 5000 µM (PfCRT^Dd2 [7]; pH 5.5, read-out: PfCRT-mediated [3H]CQ transport, trans-stimulation (% PfCRTDd2 control), [test solute]i = 5 mM (intracellular), PfCRTDd2 oocytes, normalised to oocyte type control): 99 ± 3.4% | activity at 5000 µM (PfCRT^Dd2 [7]; pH 5.5, read-out: Uptake of [3H]CQ (% PfCRTDd2 control), trans-stimulation, PfCRTDd2, total [3H]CQ transport, [test solute]i = 5 mM (intracellular), mean ± SEM, SEM): 101 ± 2.2% | activity at 5000 µM (PfCRT^Dd2 [7]; pH 5.5, read-out: Uptake of [3H]CQ (% PfCRTDd2 control), trans-stimulation, PfCRTDd2 oocytes, [test solute]i = 5 mM, total [3H]CQ transport, normalised to the oocyte type control): 101 ± 2.2% | activity at 45000 µM (PfCRT^Dd2 [7]; pH 5.5, read-out: Uptake of [3H]CQ (% PfCRTDd2 control), trans-stimulation, PfCRTDd2 oocytes, total [3H]CQ transport, normalised to the oocyte type control): 100 ± 2.4% | activity at 5000 µM (PfCRT^Dd2 [7]; pH 5.5, read-out: [3H]CQ transport (% PfCRTDd2 control), trans-stimulation, PfCRTDd2, trans-stimulation, [test solute]i = 5 mM (injected), PfCRT-mediated component (background subtracted), mean ± SEM, SEM): 99 ± 3.4% | activity at 45000 µM (PfCRT^Dd2 [7]; pH 5.5, read-out: [3H]CQ transport (% PfCRTDd2 control), trans-stimulation, PfCRTDd2, trans-stimulation, PfCRT-mediated component (background subtracted), mean ± SEM, SEM): 98 ± 3.7% | Tested as potential co-substrate but not required for influx of VF-6 via PfCRT into the oocyte (PfCRT [8]): X | Uptake of [3H]CQ (% non-expressing oocyte control), trans-stimulation (non-expressing oocytes [9]; [test solute]i = 5 mM): 100 ± 3.2 % non-expressing oocyte control | Uptake of [3H]CQ (% non-expressing oocyte control), trans-stimulation (non-expressing oocytes [9]; [test solute]i = 45 mM (30 mM for some solutes due to solubility)): 98 ± 2.2 % non-expressing oocyte control | Uptake of [3H]CQ (% PfCRTDd2 control), trans-stimulation, non-expressing oocytes (non-expressing oocytes [9]; [test solute]i = 5 mM (intracellular)): 2.7 ± 0.07 % PfCRTDd2 control | Uptake of [3H]CQ (% PfCRTDd2 control), trans-stimulation, non-expressing oocytes (non-expressing oocytes [9]; [test solute]i = 45 mM (intracellular; 30 mM for some solutes due to solubility)): 2.7 ± 0.05 % PfCRTDd2 control | inhibition at 500 µM (PfCRT^3D7 [10]; [21]): 101 ± 4.8% | inhibition at 1000 µM (PfCRT^3D7 [10]; [21]): 99 ± 3.6% | inhibition at 2000 µM (PfCRT^3D7 [10]; [21]): 99 ± 4.7% | inhibition at 500 µM (PfCRT^3D7 [10]; [22]): 2.6 ± 0.04% | inhibition at 1000 µM (PfCRT^3D7 [10]; [22]): 2.1 ± 0.01% | inhibition at 2000 µM (PfCRT^3D7 [10]; [22]): 2.6 ± 0.04%

Reference: PMC7413254 (Nature Communications, 2020)
